Assay results: patent US20220193013A1, “Pharmaceutical Composition for Treatment or Prevention of Multiple Inflammatory Disorders” (priority 2020, published 2022)

Assays:
[1] = system: mouse peritoneum macrophages; assay: LPS-stimulated mouse peritoneal macrophages, cytokine analysis; type: cell-based; conditions: for GM-CSF, Significance @ 12 hour LPS incubation / IFNγ, Significance @ 12 hour LPS incubation / IL-1α, Significance @ 12 hour LPS incubation / IL-1β, Significance @ 12 hour LPS incubation / IL-2, Significance @ 12 hour LPS incubation / IL-4, Significance @ 12 hour LPS incubation / IL-6, Significance @ 12 hour LPS incubation / IL-7, Significance @ 12 hour LPS incubation / IL-10, Significance @ 12 hour LPS incubation / IL-12 (p70), Significance @ 12 hour LPS incubation / IL-13, Significance @ 12 hour LPS incubation / IL-17A, Significance @ 12 hour LPS incubation / KC/CXCL1, Significance @ 12 hour LPS incubation / LIX, Significance @ 12 hour LPS incubation / MCP-1, Significance @ 12 hour LPS incubation / MIP-2, Significance @ 12 hour LPS incubation / TNF-α, Significance @ 12 hour LPS incubation: P value
Procedure: This example provides an […] study to determine the effect of DA on mouse peritoneum macrophages. Peritoneal exudates were obtained from Balb/c female mice by lavage 4 days after an intraperitoneal injection of 4 ml sterile 4% thioglycollate broth. After washing with RPMI 1640 medium, the cell suspensions were centrifuged at 800 g at 4° C. for 5 min. The red blood cells were eliminated by ACK buffer and the cells were washed and resuspended in RPMI 1640 supplemented with 10% inactivated FBS, 10 mM HEPES, 2 mM glutamine, and 100 U/ml penicillin-[…] streptomycin. The peritoneal macrophages were plated in 24 well tissue culture plate (2×10^5 cells/mL/well) at 37° C. in a 5% CO2 humidified atmosphere. Macrophages were precultured in serum-free RPMI 1640 medium for 24 h to reduce mitogenic effects. Macrophages were pretreated with various concentrations of DA for 1 h prior to LPS treatment and stimulated with LPS (100 ng/mL) for 24 h. Treatment groups were: Table 4 At 12 and 24 h time points of stimulation, ˜200 ul of supernatant were removed and stored (−80° C.) for cytokine analysis ([…]). Cytokines analyzed were—GM-CSF, IFNγ, IL-1a, IL-1β, IL-2, IL-4, IL-5, IL-6, IL-7, IL-10, IL-12 (p70), IL-13, IL-17A, KC/CXCL1, LIX, MCP-1, MIP-2, TNF-α,

[2] = system: acute lung injury plus hyperthermia, CD-1 mice; assay: mouse acute lung injury plus hyperthermia model; type: in vivo
Procedure: This example provides results of a study to evaluate the effect of denatonium acetate in a mouse acute lung injury plus hyperthermia model. The procedure was three groups of CD-1 mice given (1) saline by gavage for oral administration BID, (2) DA administered oral at a dose of 92.4 mg/kg BID and (3) was DA iv at 3 mg/kg iv bolus QD. Lung lavage fluid was measured and cytokine analysis. Statistics was one-way ANOVA followed by Tukey's multiple comparison post hoc test for data with normal distribution; Kruskal-Wallis test followed by Dunn's multiple comparison post hoc test for data with skewed distribution; and the ROUT method for identifying outliers. Control or drug administered for 3 days, then LPS at 50 μL of 1 mg/ml delivered intratracheally with a Penn Century needle where a core temperature of 39 C at 24 hours post LPS and then sacrifice to measure lung lavage fluid protein concentration and serum cytokine levels.

CC(=O)[O-].CC[N+](CC)(CC(=O)Nc1c(C)cccc1C)Cc1ccccc1 [DA, denatonium acetate]
GM-CSF, Significance @ 24 hour LPS incubation ([1]; DA 1 μM): No sig
IFNγ, Significance @ 24 hour LPS incubation ([1]; DA 1 μM): No sig
IL-1α, Significance @ 24 hour LPS incubation ([1]; DA 1 μM): No sig
IL-1β, Significance @ 24 hour LPS incubation ([1]; DA 1 μM): No sig
IL-2, Significance @ 24 hour LPS incubation ([1]; DA 1 μM): No sig
IL-4, Significance @ 24 hour LPS incubation ([1]; DA 1 μM): No sig
IL-6, Significance @ 24 hour LPS incubation ([1]; DA 1 μM): No sig
IL-7, Significance @ 24 hour LPS incubation ([1]; DA 1 μM): No sig
IL-10, Significance @ 24 hour LPS incubation ([1]; DA 1 μM): No sig
IL-12 (p70), Significance @ 24 hour LPS incubation ([1]; DA 1 μM): No sig
IL-13, Significance @ 24 hour LPS incubation ([1]; DA 1 μM): No sig
IL-17A, Significance @ 24 hour LPS incubation ([1]; DA 1 μM): No sig
KC/CXCL1, Significance @ 24 hour LPS incubation ([1]; DA 1 μM): No sig
LIX, Significance @ 24 hour LPS incubation ([1]; DA 1 μM): No sig
MCP-1, Significance @ 24 hour LPS incubation ([1]; DA 1 μM): No sig
MIP-2, Significance @ 24 hour LPS incubation ([1]; DA 1 μM): No sig
TNF-α, Significance @ 24 hour LPS incubation ([1]; DA 1 μM): No sig
GM-CSF, Significance @ 12 hour LPS incubation ([1]; DA 1 μM): 0.029
IFNγ, Significance @ 12 hour LPS incubation ([1]; DA 1 μM): 0.031
IL-1α, Significance @ 12 hour LPS incubation ([1]; DA 1 μM): 0.021
IL-1β, Significance @ 12 hour LPS incubation ([1]; DA 1 μM): 0.023
IL-2, Significance @ 12 hour LPS incubation ([1]; DA 1 μM): 0.005
IL-4, Significance @ 12 hour LPS incubation ([1]; DA 1 μM): 0.009
IL-6, Significance @ 12 hour LPS incubation ([1]; DA 1 μM): 0.096
IL-7, Significance @ 12 hour LPS incubation ([1]; DA 1 μM): 0.024
IL-10, Significance @ 12 hour LPS incubation ([1]; DA 1 μM): 0.045
IL-12 (p70), Significance @ 12 hour LPS incubation ([1]; DA 1 μM): 0.017
IL-13, Significance @ 12 hour LPS incubation ([1]; DA 1 μM): 0.038
IL-17A, Significance @ 12 hour LPS incubation ([1]; DA 1 μM): 0.044
KC/CXCL1, Significance @ 12 hour LPS incubation ([1]; DA 1 μM): No sig
LIX, Significance @ 12 hour LPS incubation ([1]; DA 1 μM): No sig
MCP-1, Significance @ 12 hour LPS incubation ([1]; DA 1 μM): No sig
MIP-2, Significance @ 12 hour LPS incubation ([1]; DA 1 μM): 0.081
TNF-α, Significance @ 12 hour LPS incubation ([1]; DA 1 μM): 0.059
GM-CSF, Significance @ 24 hour LPS incubation ([1]; DA 10 μM): no sig
IFNγ, Significance @ 24 hour LPS incubation ([1]; DA 10 μM): no sig
IL-1α, Significance @ 24 hour LPS incubation ([1]; DA 10 μM): no sig
IL-1β, Significance @ 24 hour LPS incubation ([1]; DA 10 μM): no sig
IL-2, Significance @ 24 hour LPS incubation ([1]; DA 10 μM): no sig
IL-4, Significance @ 24 hour LPS incubation ([1]; DA 10 μM): no sig
IL-6, Significance @ 24 hour LPS incubation ([1]; DA 10 μM): no sig
IL-7, Significance @ 24 hour LPS incubation ([1]; DA 10 μM): no sig
IL-10, Significance @ 24 hour LPS incubation ([1]; DA 10 μM): no sig
IL-12 (p70), Significance @ 24 hour LPS incubation ([1]; DA 10 μM): no sig
IL-13, Significance @ 24 hour LPS incubation ([1]; DA 10 μM): no sig
IL-17A, Significance @ 24 hour LPS incubation ([1]; DA 10 μM): no sig
KC/CXCL1, Significance @ 24 hour LPS incubation ([1]; DA 10 μM): no sig
LIX, Significance @ 24 hour LPS incubation ([1]; DA 10 μM): no sig
MCP-1, Significance @ 24 hour LPS incubation ([1]; DA 10 μM): no sig
MIP-2, Significance @ 24 hour LPS incubation ([1]; DA 10 μM): no sig
TNF-α, Significance @ 24 hour LPS incubation ([1]; DA 10 μM): no sig
GM-CSF, Significance @ 12 hour LPS incubation ([1]; DA 10 μM): no sig
IFNγ, Significance @ 12 hour LPS incubation ([1]; DA 10 μM): 0.037
IL-1α, Significance @ 12 hour LPS incubation ([1]; DA 10 μM): 0.036
IL-1β, Significance @ 12 hour LPS incubation ([1]; DA 10 μM): 0.023
IL-2, Significance @ 12 hour LPS incubation ([1]; DA 10 μM): 0.004
IL-4, Significance @ 12 hour LPS incubation ([1]; DA 10 μM): 0.009
IL-6, Significance @ 12 hour LPS incubation ([1]; DA 10 μM): 0.029
IL-7, Significance @ 12 hour LPS incubation ([1]; DA 10 μM): 0.010
IL-10, Significance @ 12 hour LPS incubation ([1]; DA 10 μM): 0.026
IL-12 (p70), Significance @ 12 hour LPS incubation ([1]; DA 10 μM): 0.007
IL-13, Significance @ 12 hour LPS incubation ([1]; DA 10 μM): 0.019
IL-17A, Significance @ 12 hour LPS incubation ([1]; DA 10 μM): 0.024
KC/CXCL1, Significance @ 12 hour LPS incubation ([1]; DA 10 μM): no sig
LIX, Significance @ 12 hour LPS incubation ([1]; DA 10 μM): no sig
MCP-1, Significance @ 12 hour LPS incubation ([1]; DA 10 μM): no sig
MIP-2, Significance @ 12 hour LPS incubation ([1]; DA 10 μM): 0.021
TNF-α, Significance @ 12 hour LPS incubation ([1]; DA 10 μM): 0.024
GM-CSF, Significance @ 24 hour LPS incubation ([1]; DA 100 μM): no sig
IFNγ, Significance @ 24 hour LPS incubation ([1]; DA 100 μM): no sig
IL-1α, Significance @ 24 hour LPS incubation ([1]; DA 100 μM): no sig
IL-1β, Significance @ 24 hour LPS incubation ([1]; DA 100 μM): no sig
IL-2, Significance @ 24 hour LPS incubation ([1]; DA 100 μM): no sig
IL-4, Significance @ 24 hour LPS incubation ([1]; DA 100 μM): no sig
IL-6, Significance @ 24 hour LPS incubation ([1]; DA 100 μM): no sig
IL-7, Significance @ 24 hour LPS incubation ([1]; DA 100 μM): no sig
IL-10, Significance @ 24 hour LPS incubation ([1]; DA 100 μM): no sig
IL-12 (p70), Significance @ 24 hour LPS incubation ([1]; DA 100 μM): no sig
IL-13, Significance @ 24 hour LPS incubation ([1]; DA 100 μM): no sig
IL-17A, Significance @ 24 hour LPS incubation ([1]; DA 100 μM): no sig
KC/CXCL1, Significance @ 24 hour LPS incubation ([1]; DA 100 μM): no sig
LIX, Significance @ 24 hour LPS incubation ([1]; DA 100 μM): no sig
MCP-1, Significance @ 24 hour LPS incubation ([1]; DA 100 μM): no sig
MIP-2, Significance @ 24 hour LPS incubation ([1]; DA 100 μM): no sig
TNF-α, Significance @ 24 hour LPS incubation ([1]; DA 100 μM): no sig
GM-CSF, Significance @ 12 hour LPS incubation ([1]; DA 100 μM): no sig
IL-10, Significance @ 12 hour LPS incubation ([1]; DA 100 μM): 0.015
IL-12 (p70), Significance @ 12 hour LPS incubation ([1]; DA 100 μM): 0.008
IL-13, Significance @ 12 hour LPS incubation ([1]; DA 100 μM): 0.021
IL-17A, Significance @ 12 hour LPS incubation ([1]; DA 100 μM): 0.042
KC/CXCL1, Significance @ 12 hour LPS incubation ([1]; DA 100 μM): 0.022
LIX, Significance @ 12 hour LPS incubation ([1]; DA 100 μM): no sig
MCP-1, Significance @ 12 hour LPS incubation ([1]; DA 100 μM): no sig
MIP-2, Significance @ 12 hour LPS incubation ([1]; DA 100 μM): 0.033
TNF-α, Significance @ 12 hour LPS incubation ([1]; DA 100 μM): 0.033
protein concentration in lung lavage fluid ([2]; iv 3 mg/kg bolus QD): drastic but not significantly reduced
protein concentration in lung lavage fluid ([2]; oral 92.4 mg/kg BID): drastic but not significantly reduced
